Oligonucleotides are given in HELM: sugar(base)linkage, 5' to 3'; d 2'-deoxyribose, r ribose, m 2'-O-methylribose, p phosphate. ss, as = sense and antisense strand
Further: test concentration or dose not given here.

For the data set, the target named is TMEM63B. In words: reporter assay of Huesken 2005. Conditions: siRNA. On the technique in general: In a reporter assay the amount or activity of a reporter protein is the signal.
Substance “RNA1{r(A)p.r(G)p.r(G)p.r(U)p.r(G)p.r(C)p.r(U)p.r(G)p.r(C)p.r(A)p.r(G)p.r(G)p.r(A)p.r(C)p.r(U)p.r(C)p.r(A)p.r(G)p.r(A)p.d(T)p.d(T)}|RNA2{r(U)p.r(C)p.r(U)p.r(G)p.r(A)p.r(G)p.r(U)p.r(C)p.r(C)p.r(U)p.r(G)p.r(C)p.r(A)p.r(G)p.r(C)p.r(A)p.r(C)p.r(C)p.r(U)p.d(G)p.d(A)}$$$RNA1{StrandType:ss}|RNA2{StrandType:as}$” yielded a normalised inhibition (eCFP-eYFP dual reporter) of 61.8%.

As to “RNA1{r(C)p.r(G)p.r(C)p.r(U)p.r(A)p.r(C)p.r(A)p.r(A)p.r(G)p.r(G)p.r(A)p.r(G)p.r(G)p.r(A)p.r(U)p.r(G)p.r(A)p.r(U)p.r(C)p.d(T)p.d(T)}|RNA2{r(G)p.r(A)p.r(U)p.r(C)p.r(A)p.r(U)p.r(C)p.r(C)p.r(U)p.r(C)p.r(C)p.r(U)p.r(U)p.r(G)p.r(U)p.r(A)p.r(G)p.r(C)p.r(G)p.d(C)p.d(A)}$$$RNA1{StrandType:ss}|RNA2{StrandType:as}$”, the normalised inhibition (eCFP-eYFP dual reporter) stood at 79.3%.

Substance “RNA1{r(G)p.r(U)p.r(A)p.r(C)p.r(U)p.r(A)p.r(C)p.r(A)p.r(C)p.r(A)p.r(A)p.r(A)p.r(G)p.r(C)p.r(U)p.r(G)p.r(G)p.r(A)p.r(G)p.d(T)p.d(T)}|RNA2{r(C)p.r(U)p.r(C)p.r(C)p.r(A)p.r(G)p.r(C)p.r(U)p.r(U)p.r(U)p.r(G)p.r(U)p.r(G)p.r(U)p.r(A)p.r(G)p.r(U)p.r(A)p.r(C)p.d(T)p.d(C)}$$$RNA1{StrandType:ss}|RNA2{StrandType:as}$” gave a normalised inhibition (eCFP-eYFP dual reporter) of 58.4%.

In turn, “RNA1{r(C)p.r(A)p.r(U)p.r(C)p.r(U)p.r(G)p.r(G)p.r(U)p.r(G)p.r(G)p.r(C)p.r(U)p.r(G)p.r(C)p.r(G)p.r(C)p.r(U)p.r(G)p.r(C)p.d(T)p.d(T)}|RNA2{r(G)p.r(C)p.r(A)p.r(G)p.r(C)p.r(G)p.r(C)p.r(A)p.r(G)p.r(C)p.r(C)p.r(A)p.r(C)p.r(C)p.r(A)p.r(G)p.r(A)p.r(U)p.r(G)p.d(A)p.d(A)}$$$RNA1{StrandType:ss}|RNA2{StrandType:as}$” gave a normalised inhibition (eCFP-eYFP dual reporter) of 29.3%.

Turning to “RNA1{r(C)p.r(A)p.r(C)p.r(U)p.r(U)p.r(C)p.r(A)p.r(A)p.r(A)p.r(U)p.r(A)p.r(C)p.r(C)p.r(U)p.r(C)p.r(A)p.r(G)p.r(U)p.r(G)p.d(T)p.d(T)}|RNA2{r(C)p.r(A)p.r(C)p.r(U)p.r(G)p.r(A)p.r(G)p.r(G)p.r(U)p.r(A)p.r(U)p.r(U)p.r(U)p.r(G)p.r(A)p.r(A)p.r(G)p.r(U)p.r(G)p.d(T)p.d(C)}$$$RNA1{StrandType:ss}|RNA2{StrandType:as}$”, the normalised inhibition (eCFP-eYFP dual reporter) worked out at 55%.

With “RNA1{r(U)p.r(G)p.r(C)p.r(A)p.r(C)p.r(A)p.r(A)p.r(G)p.r(U)p.r(G)p.r(C)p.r(U)p.r(A)p.r(C)p.r(A)p.r(C)p.r(U)p.r(U)p.r(U)p.d(T)p.d(T)}|RNA2{r(A)p.r(A)p.r(A)p.r(G)p.r(U)p.r(G)p.r(U)p.r(A)p.r(G)p.r(C)p.r(A)p.r(C)p.r(U)p.r(U)p.r(G)p.r(U)p.r(G)p.r(C)p.r(A)p.d(T)p.d(G)}$$$RNA1{StrandType:ss}|RNA2{StrandType:as}$”, the normalised inhibition (eCFP-eYFP dual reporter) is 99.1%.

Regarding “RNA1{r(A)p.r(G)p.r(A)p.r(G)p.r(A)p.r(G)p.r(G)p.r(A)p.r(A)p.r(G)p.r(A)p.r(A)p.r(G)p.r(G)p.r(C)p.r(C)p.r(G)p.r(A)p.r(G)p.d(T)p.d(T)}|RNA2{r(C)p.r(U)p.r(C)p.r(G)p.r(G)p.r(C)p.r(C)p.r(U)p.r(U)p.r(C)p.r(U)p.r(U)p.r(C)p.r(C)p.r(U)p.r(C)p.r(U)p.r(C)p.r(U)p.d(G)p.d(C)}$$$RNA1{StrandType:ss}|RNA2{StrandType:as}$”, the normalised inhibition (eCFP-eYFP dual reporter) is 49.4%.

For the substance “RNA1{r(A)p.r(G)p.r(G)p.r(A)p.r(G)p.r(G)p.r(A)p.r(U)p.r(G)p.r(A)p.r(U)p.r(C)p.r(U)p.r(G)p.r(G)p.r(U)p.r(G)p.r(A)p.r(A)p.d(T)p.d(T)}|RNA2{r(U)p.r(U)p.r(C)p.r(A)p.r(C)p.r(C)p.r(A)p.r(G)p.r(A)p.r(U)p.r(C)p.r(A)p.r(U)p.r(C)p.r(C)p.r(U)p.r(C)p.r(C)p.r(U)p.d(T)p.d(G)}$$$RNA1{StrandType:ss}|RNA2{StrandType:as}$”, the normalised inhibition (eCFP-eYFP dual reporter) came to 77.4%.

As for “RNA1{r(C)p.r(C)p.r(U)p.r(G)p.r(C)p.r(U)p.r(C)p.r(A)p.r(U)p.r(G)p.r(U)p.r(A)p.r(C)p.r(A)p.r(U)p.r(G)p.r(A)p.r(U)p.r(C)p.d(T)p.d(T)}|RNA2{r(G)p.r(A)p.r(U)p.r(C)p.r(A)p.r(U)p.r(G)p.r(U)p.r(A)p.r(C)p.r(A)p.r(U)p.r(G)p.r(A)p.r(G)p.r(C)p.r(A)p.r(G)p.r(G)p.d(C)p.d(C)}$$$RNA1{StrandType:ss}|RNA2{StrandType:as}$”, the normalised inhibition (eCFP-eYFP dual reporter) worked out at 73.1%.

Substance “RNA1{r(U)p.r(C)p.r(A)p.r(U)p.r(G)p.r(A)p.r(C)p.r(C)p.r(U)p.r(A)p.r(C)p.r(A)p.r(G)p.r(U)p.r(A)p.r(U)p.r(C)p.r(A)p.r(C)p.d(T)p.d(T)}|RNA2{r(G)p.r(U)p.r(G)p.r(A)p.r(U)p.r(A)p.r(C)p.r(U)p.r(G)p.r(U)p.r(A)p.r(G)p.r(G)p.r(U)p.r(C)p.r(A)p.r(U)p.r(G)p.r(A)p.d(C)p.d(C)}$$$RNA1{StrandType:ss}|RNA2{StrandType:as}$” had a normalised inhibition (eCFP-eYFP dual reporter) of 60.2%.

For “RNA1{r(G)p.r(C)p.r(A)p.r(A)p.r(C)p.r(G)p.r(C)p.r(C)p.r(A)p.r(U)p.r(G)p.r(G)p.r(A)p.r(C)p.r(C)p.r(U)p.r(G)p.r(C)p.r(U)p.d(T)p.d(T)}|RNA2{r(A)p.r(G)p.r(C)p.r(A)p.r(G)p.r(G)p.r(U)p.r(C)p.r(C)p.r(A)p.r(U)p.r(G)p.r(G)p.r(C)p.r(G)p.r(U)p.r(U)p.r(G)p.r(C)p.d(C)p.d(G)}$$$RNA1{StrandType:ss}|RNA2{StrandType:as}$”, the normalised inhibition (eCFP-eYFP dual reporter) came to 71.1%.

“RNA1{r(C)p.r(A)p.r(U)p.r(G)p.r(A)p.r(C)p.r(C)p.r(U)p.r(A)p.r(C)p.r(A)p.r(G)p.r(U)p.r(A)p.r(U)p.r(C)p.r(A)p.r(C)p.r(C)p.d(T)p.d(T)}|RNA2{r(G)p.r(G)p.r(U)p.r(G)p.r(A)p.r(U)p.r(A)p.r(C)p.r(U)p.r(G)p.r(U)p.r(A)p.r(G)p.r(G)p.r(U)p.r(C)p.r(A)p.r(U)p.r(G)p.d(A)p.d(C)}$$$RNA1{StrandType:ss}|RNA2{StrandType:as}$” had a normalised inhibition (eCFP-eYFP dual reporter) of 58.9%.

On to “RNA1{r(U)p.r(C)p.r(A)p.r(G)p.r(A)p.r(G)p.r(G)p.r(U)p.r(G)p.r(G)p.r(A)p.r(C)p.r(G)p.r(G)p.r(G)p.r(G)p.r(A)p.r(U)p.r(G)p.d(T)p.d(T)}|RNA2{r(C)p.r(A)p.r(U)p.r(C)p.r(C)p.r(C)p.r(C)p.r(G)p.r(U)p.r(C)p.r(C)p.r(A)p.r(C)p.r(C)p.r(U)p.r(C)p.r(U)p.r(G)p.r(A)p.d(G)p.d(T)}$$$RNA1{StrandType:ss}|RNA2{StrandType:as}$”, for which the normalised inhibition (eCFP-eYFP dual reporter) is 29.5%.

As for “RNA1{r(A)p.r(C)p.r(U)p.r(U)p.r(G)p.r(A)p.r(A)p.r(A)p.r(U)p.r(C)p.r(A)p.r(G)p.r(G)p.r(G)p.r(A)p.r(A)p.r(C)p.r(A)p.r(A)p.d(T)p.d(T)}|RNA2{r(U)p.r(U)p.r(G)p.r(U)p.r(U)p.r(C)p.r(C)p.r(C)p.r(U)p.r(G)p.r(A)p.r(U)p.r(U)p.r(U)p.r(C)p.r(A)p.r(A)p.r(G)p.r(U)p.d(T)p.d(G)}$$$RNA1{StrandType:ss}|RNA2{StrandType:as}$”, the normalised inhibition (eCFP-eYFP dual reporter) was found to be 34.4%.

Turning to “RNA1{r(U)p.r(G)p.r(U)p.r(G)p.r(U)p.r(A)p.r(A)p.r(A)p.r(U)p.r(G)p.r(C)p.r(C)p.r(A)p.r(G)p.r(G)p.r(G)p.r(C)p.r(U)p.r(G)p.d(T)p.d(T)}|RNA2{r(C)p.r(A)p.r(G)p.r(C)p.r(C)p.r(C)p.r(U)p.r(G)p.r(G)p.r(C)p.r(A)p.r(U)p.r(U)p.r(U)p.r(A)p.r(C)p.r(A)p.r(C)p.r(A)p.d(C)p.d(G)}$$$RNA1{StrandType:ss}|RNA2{StrandType:as}$”, the normalised inhibition (eCFP-eYFP dual reporter) came out at 66.8%.

Substance “RNA1{r(G)p.r(C)p.r(C)p.r(U)p.r(U)p.r(U)p.r(G)p.r(U)p.r(C)p.r(A)p.r(C)p.r(C)p.r(U)p.r(U)p.r(C)p.r(C)p.r(A)p.r(C)p.r(A)p.d(T)p.d(T)}|RNA2{r(U)p.r(G)p.r(U)p.r(G)p.r(G)p.r(A)p.r(A)p.r(G)p.r(G)p.r(U)p.r(G)p.r(A)p.r(C)p.r(A)p.r(A)p.r(A)p.r(G)p.r(G)p.r(C)p.d(C)p.d(A)}$$$RNA1{StrandType:ss}|RNA2{StrandType:as}$” returned a normalised inhibition (eCFP-eYFP dual reporter) of 72.5%.

Substance “RNA1{r(A)p.r(G)p.r(C)p.r(A)p.r(G)p.r(G)p.r(U)p.r(G)p.r(G)p.r(A)p.r(G)p.r(G)p.r(C)p.r(C)p.r(A)p.r(U)p.r(U)p.r(G)p.r(A)p.d(T)p.d(T)}|RNA2{r(U)p.r(C)p.r(A)p.r(A)p.r(U)p.r(G)p.r(G)p.r(C)p.r(C)p.r(U)p.r(C)p.r(C)p.r(A)p.r(C)p.r(C)p.r(U)p.r(G)p.r(C)p.r(U)p.d(C)p.d(A)}$$$RNA1{StrandType:ss}|RNA2{StrandType:as}$” yielded a normalised inhibition (eCFP-eYFP dual reporter) of 77.2%.

Turning to “RNA1{r(C)p.r(C)p.r(A)p.r(U)p.r(C)p.r(C)p.r(U)p.r(C)p.r(U)p.r(G)p.r(C)p.r(C)p.r(U)p.r(C)p.r(U)p.r(U)p.r(C)p.r(U)p.r(G)p.d(T)p.d(T)}|RNA2{r(C)p.r(A)p.r(G)p.r(A)p.r(A)p.r(G)p.r(A)p.r(G)p.r(G)p.r(C)p.r(A)p.r(G)p.r(A)p.r(G)p.r(G)p.r(A)p.r(U)p.r(G)p.r(G)p.d(G)p.d(C)}$$$RNA1{StrandType:ss}|RNA2{StrandType:as}$”, the normalised inhibition (eCFP-eYFP dual reporter) is 53.2%.

The substance “RNA1{r(C)p.r(C)p.r(G)p.r(U)p.r(G)p.r(C)p.r(A)p.r(C)p.r(U)p.r(A)p.r(C)p.r(C)p.r(U)p.r(G)p.r(U)p.r(C)p.r(C)p.r(U)p.r(U)p.d(T)p.d(T)}|RNA2{r(A)p.r(A)p.r(G)p.r(G)p.r(A)p.r(C)p.r(A)p.r(G)p.r(G)p.r(U)p.r(A)p.r(G)p.r(U)p.r(G)p.r(C)p.r(A)p.r(C)p.r(G)p.r(G)p.d(C)p.d(A)}$$$RNA1{StrandType:ss}|RNA2{StrandType:as}$” registered a normalised inhibition (eCFP-eYFP dual reporter) of 86.8%.

In the case of “RNA1{r(C)p.r(U)p.r(U)p.r(G)p.r(A)p.r(A)p.r(A)p.r(U)p.r(C)p.r(A)p.r(G)p.r(G)p.r(G)p.r(A)p.r(A)p.r(C)p.r(A)p.r(A)p.r(C)p.d(T)p.d(T)}|RNA2{r(G)p.r(U)p.r(U)p.r(G)p.r(U)p.r(U)p.r(C)p.r(C)p.r(C)p.r(U)p.r(G)p.r(A)p.r(U)p.r(U)p.r(U)p.r(C)p.r(A)p.r(A)p.r(G)p.d(T)p.d(T)}$$$RNA1{StrandType:ss}|RNA2{StrandType:as}$”, the normalised inhibition (eCFP-eYFP dual reporter) came out at 71.1%.
